From ChEMBL document CHEMBL1201862, “PubChem BioAssay data set” (2004)
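Five compound concentrations were applied to cells in 96-well plates for 48 hours; endpoints were derived by simple linear interpolation of the resulting dose-response curve. Here, GI50 denotes the concentration required for 50% inhibition of growth.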 Active and inactive are the calls of the source. Cut-off read from the data, not from the text of the source: active = GI50 up to about 1.1 µM and inactive = higher.

Columns and labels:
Experiment in all cases: growth of human tumour cells (NCI), 48 h
786-0 = system: 786-0
CCRF-CEM = system: CCRF-CEM
COLO 205 = system: COLO 205
HT-29 = system: HT-29
K562 = system: K562
MDA-MB-231 = system: MDA-MB-231
NCI-H23 = system: NCI-H23
OVCAR-5 = system: OVCAR-5
RXF 393 = system: RXF 393
SF-268 = system: SF-268
SF-295 = system: SF-295
SF-539 = system: SF-539
SK-MEL-2 = system: SK-MEL-2
SK-MEL-5 = system: SK-MEL-5
SK-OV-3 = system: SK-OV-3
SNB-19 = system: SNB-19
SR = system: SR
T47D = system: T47D
TK-10 = system: TK-10
UO-31 = system: UO-31

Structure (SMILES): CC(=O)CC[N+](C)(C)C
- GI50 (786-0): 23.6 µM (inactive)
- GI50 (CCRF-CEM): 5.24 µM (inactive)
- GI50 (COLO 205): 9.04 µM (inactive)
- GI50 (HT-29): 32.7 µM (inactive)
- GI50 (K562): 3.21 µM (inactive)
- GI50 (MDA-MB-231): 21.3 µM (inactive)
- GI50 (NCI-H23): 29.2 µM (inactive)
- GI50 (OVCAR-5): 44.6 µM (inactive)
- GI50 (RXF 393): 12.9 µM (inactive)
- GI50 (SF-268): 44.3 µM (inactive)
- GI50 (SF-295): 83.6 µM (inactive)
- GI50 (SF-539): 62.8 µM (inactive)
- GI50 (SK-MEL-2): 36.4 µM (inactive)
- GI50 (SK-MEL-5): 30.3 µM (inactive)
- GI50 (SK-OV-3): 26.7 µM (inactive)
- GI50 (SNB-19): 22.7 µM (inactive)
- GI50 (SR): 7.85 µM (inactive)
- GI50 (T47D): 29.2 µM (inactive)
- GI50 (TK-10): 27.6 µM (inactive)
- GI50 (UO-31): 42 µM (inactive)

Structure (SMILES): N#CC(c1ccccc1)N(CCc1ccccc1)C(=O)c1ccccc1 (stereo not given)
- GI50 (786-0): 27.7 µM (inactive)
- GI50 (CCRF-CEM): > 100 µM (inactive)
- GI50 (COLO 205): > 100 µM (inactive)
- GI50 (HT-29): > 100 µM (inactive)
- GI50 (K562): > 100 µM (inactive)
- GI50 (MDA-MB-231): 47.8 µM (inactive)
- GI50 (NCI-H23): 71.9 µM (inactive)
- GI50 (OVCAR-5): > 100 µM (inactive)
- GI50 (RXF 393): > 52.1 µM (inactive)
- GI50 (SF-268): 30.2 µM (inactive)
- GI50 (SF-295): 38.5 µM (inactive)
- GI50 (SF-539): 31.3 µM (inactive)
- GI50 (SK-MEL-2): > 64.7 µM (inactive)
- GI50 (SK-MEL-5): > 100 µM (inactive)
- GI50 (SK-OV-3): 53.3 µM (inactive)
- GI50 (SNB-19): 26.2 µM (inactive)
- GI50 (SR): > 100 µM (inactive)
- GI50 (T47D): > 100 µM (inactive)
- GI50 (TK-10): > 75.2 µM (inactive)
- GI50 (UO-31): > 74.6 µM (inactive)

Structure (SMILES): O=C1/C(=C/c2ccc([N+](=O)[O-])cc2)CNC/C1=C\c1ccc([N+](=O)[O-])cc1
- GI50 (786-0): 1.13 µM (inactive)
- GI50 (CCRF-CEM): 0.229 µM (active)
- GI50 (COLO 205): 5.62 µM (inactive)
- GI50 (HT-29): 1.41 µM (inactive)
- GI50 (K562): 0.188 µM (active)
- GI50 (MDA-MB-231): 2.69 µM (inactive)
- GI50 (NCI-H23): 4.62 µM (inactive)
- GI50 (OVCAR-5): 22.8 µM (inactive)
- GI50 (RXF 393): 12.2 µM (inactive)
- GI50 (SF-268): 1.65 µM (inactive)
- GI50 (SF-295): 10.2 µM (inactive)
- GI50 (SF-539): 2.09 µM (inactive)
- GI50 (SK-MEL-2): 31.8 µM (inactive)
- GI50 (SK-MEL-5): 10.8 µM (inactive)
- GI50 (SK-OV-3): 48 µM (inactive)
- GI50 (SNB-19): 2.27 µM (inactive)
- GI50 (SR): 0.241 µM (active)
- GI50 (T47D): 18.7 µM (inactive)
- GI50 (TK-10): 33.1 µM (inactive)
- GI50 (UO-31): 6.17 µM (inactive)

Structure (SMILES): COc1nc2c(c(=O)n1C)N(C(C)=O)C1C(N2)OCC(OC(C)=O)C1OC(C)=O (stereo not given)
- GI50 (786-0): > 10 µM (inactive)
- GI50 (CCRF-CEM): > 10 µM (inactive)
- GI50 (COLO 205): > 10 µM (inactive)
- GI50 (HT-29): > 10 µM (inactive)
- GI50 (K562): > 10 µM (inactive)
- GI50 (MDA-MB-231): > 10 µM (inactive)
- GI50 (NCI-H23): > 10 µM (inactive)
- GI50 (OVCAR-5): > 10 µM (inactive)
- GI50 (RXF 393): > 10 µM (inactive)
- GI50 (SF-268): > 10 µM (inactive)
- GI50 (SF-295): > 10 µM (inactive)
- GI50 (SF-539): > 10 µM (inactive)
- GI50 (SK-MEL-2): > 10 µM (inactive)
- GI50 (SK-MEL-5): > 10 µM (inactive)
- GI50 (SK-OV-3): > 10 µM (inactive)
- GI50 (SNB-19): > 10 µM (inactive)
- GI50 (SR): > 10 µM (inactive)
- GI50 (T47D): > 10 µM (inactive)
- GI50 (TK-10): > 10 µM (inactive)
- GI50 (UO-31): > 10 µM (inactive)
